Series [1] has as its system SARS-CoV-2. Description: Antiviral activity against SARS-CoV-2 infected in African green monkey Vero E6 cells assessed as viral reduction by measuring viral RNA measured up to 72 hrs by RT-PCR analysis. It counts as functional, organism-based. The note with it: Severe acute respiratory syndrome coronavirus 2, SARS-CoV-2, Vero C1008, 72 h.
For series [2], the target named is T1, Replicase polyprotein 1ab (Severe acute respiratory syndrome coronavirus 2, UniProt P0DTD1). Description: Inhibition of recombinant SARS-CoV-2 PLpro using TLKGGI-AMC as substrate assessed as assessed as inhibition constant ny measuring fluorescence signal measured after 15 mins. The settings on record: read-out: Ki.
Series [3] deals with Replicase polyprotein 1ab (Severe acute respiratory syndrome coronavirus 2) (UniProt P0DTD1). The series can be described thus: Covalent binding affinity to SARS-CoV-2 PLpro assessed as change in molecular weight by Mass spectrometry.
The target is the same in series [4]. Description: Non-covalent binding affinity to SARS-CoV-2 PLpro assessed change in molecular weight by Mass spectrometry.
Series [5] has as its system Severe acute respiratory syndrome coronavirus 2. The series can be described thus: Reversible inhibition of SARS-CoV-2 MPro assessed as enzyme activity by dialysis. On the set-up: scale not given: the % may be the effect or the level left.
For series [6], the target named is Replicase polyprotein 1ab (Severe acute respiratory syndrome coronavirus 2) (UniProt P0DTD1). The series can be described thus: Reversible inhibition of SARS-CoV-2 PLpro assessed as enzyme activity by dialysis. Also noted: scale not given: the % may be the effect or the level left.
Series [7] deals with Severe acute respiratory syndrome coronavirus 2. Description: Non-covalent inhibition of SARS-CoV-2 MPro by Lineweaver-Burk Plot analysis.
The target in series [8] is Replicase polyprotein 1ab (Severe acute respiratory syndrome coronavirus 2) (UniProt P0DTD1). The series can be described thus: Non-covalent inhibition of SARS-CoV-2 PLpro by Lineweaver-Burk Plot analysis.
Series [9] deals with Severe acute respiratory syndrome coronavirus 2. Description: Binding affinity to SARS-CoV-2 MPro assessed as thermal stability by measuring melting temperature of half of the proteins unfolded by differential scanning fluorimetry (DSF) (reference value: 52.46 degC).
In series [10] the target is Replicase polyprotein 1ab (Severe acute respiratory syndrome coronavirus 2) (UniProt P0DTD1). The series can be described thus: Binding affinity to SARS-CoV-2 PLpro assessed as thermal stability by measuring melting temperature of half of the proteins unfolded by differential scanning fluorimetry (DSF) (reference value: 45.79 degC).
For series [11], the target named is Chymotrypsin (Homo sapiens) (UniProt Q99895+P17538+P40313+Q6GPI1). Description: Inhibition of Chymotrypsin (unknown origin) assessed as BSA digestion. It counts as protein assay.
Series [12] in a line: Cytotoxicity against human HEK293 cells assessed as cell viability measured after 48 hrs by MTT assay. It counts as toxicity, cell-based. On the technique in general: Tetrazolium assays rely on reduction of a dye to a coloured formazan, in cell work by metabolically active cells.
A short description of series [13]: Cytotoxicity against African green monkey Vero E6 cells assessed as cell viability at 100 uM measured after 48 hrs by MTT assay relative to control. It counts as toxicity, cell-based, Vero C1008. The settings on record: chlorocebus sabaeus, read-out: Activity.
Series [14] concerns SARS-CoV-2. The series can be described thus: Antiviral activity against SARS-CoV-2 infected in African green monkey Vero E6 cells assessed as viral load reduction at 4 uM by measuring viral RNA measured up to 72 hrs by RT-PCR analysis relative to control. The format is functional, Severe acute respiratory syndrome coronavirus 2, Vero C1008. On the set-up: scale not given: the % may be the effect or the level left.

A short description of series [15]: Acute toxicity in rat assessed as change in body weight at 175 to 2000 mg/kg, po measured for 14 days. The settings on record: in vivo, 336 h, dose 175-2000 mg/kg, time 14 day. It counts as organism-based.
The nature of series [16]: Acute toxicity in rat assessed as morphological changes in liver in portal, periportal, and centrilobular regions at 175 to 2000 mg/kg, po measured for 14 days by Hand E staining based analysis. The format is organism-based. The note with it: in vivo, 336 h, dose 175-2000 mg/kg, time 14 day.
Series [17] in a line: Acute toxicity in rat assessed as toxicity at 175 to 2000 mg/kg, po measured for 14 days. It counts as organism-based. The note with it: in vivo, dose 175-2000 mg/kg, time 14 day.
Series [18] can be described thus: Inhibition of SARS-CoV-2 MPro using Dabcyl-KTSAVLQ/SGFRKME- (Edans) as substrate by FRET assay. On the set-up: species or system Severe acute respiratory syndrome coronavirus 2.
A further series deals with Human coronavirus 229E. Description: Antiviral activity against HCoV-229E infected in human Huh7.5 Fluc cells. It counts as functional, organism-based.
Series [19] concerns SARS-CoV-2. Description: Anti-viral activity against SARS-CoV-2 Calu-3 by direct yield reduction assay (DYRA). It counts as functional, organism-based. The note with it: Severe acute respiratory syndrome coronavirus 2, Calu-3, Calu-3.
Series [20] concerns SARS-CoV-2. Description: Antiviral activity against SARS-CoV-2 infected in African green monkey Vero E6 cells assessed as viral load reduction at 0.125 uM by measuring viral RNA measured up to 72 hrs by RT-PCR analysis relative to control. It counts as functional. The note with it: Severe acute respiratory syndrome coronavirus 2, Vero C1008.
The test system of series [21] is Severe acute respiratory syndrome coronavirus 2. The series can be described thus: Covalent binding affinity to SARS-CoV-2 MPro assessed as change in molecular weight by Mass spectrometry.
Series [22] has the same test system. The series can be described thus: Non-covalent binding affinity to SARS-CoV-2 MPro assessed change in molecular weight by Mass spectrometry.
A short description of series [23]: Cytotoxicity against African green monkey Vero E6 cells assessed as cell viability at 10 uM measured after 48 hrs by MTT assay relative to control. The format is toxicity, cell-based, Vero C1008. The note with it: chlorocebus sabaeus, read-out: Activity.
Series [24] addresses T1, Replicase polyprotein 1ab. The series can be described thus: Inhibition of SARS-CoV-2 PLPro.

This note sets out measurements from ChEMBL document CHEMBL6177963, “Development of acylhydrazone linked thiazoles as non-covalent dual inhibitors of SARS-CoV-2 proteases” (Eur J Med Chem, 2025).

Each structure is given as a SMILES string. pEC50, pIC50, pKi: −log10 of the molar value. Calls of active or inactive are those of the source. The rule behind the calls is not given here. Where only a bound is given, the exact number is not on record here.

Consider `CCOC(=O)c1sc(NNC(=O)c2ccc([N+](=O)[O-])cc2)nc1C`, for which the negative-log EC50 (pEC50) (as a rule, the negative decadic logarithm of the EC50, by convention in mol/L) in the series with SARS-CoV-2 [1] is 7.01. For the same molecule, in series [2], the pKi (commonly the Ki on a negative log10 scale, so that one unit is a factor of ten) was 6.35. Moreover, in series [3], the result was inactive. Also, the result in [4], in series [7] and in [8] was Active. Also, the Activity in [5] is > 90%; in [6], > 90%; with SARS-CoV-2 [14] it was >80%; in series [15] it was “Non-toxic”; in series [16] it was “Non-toxic”. For the same molecule, the Tm (usually the temperature at the midpoint of the melting transition) in series [9] worked out at 51 °C; in series [10] it was 41.5 °C. Also, the inhibition entry in [11] is “inactive”. For the same molecule, the IC50 (usually the midpoint of a concentration-inhibition curve) at 48 h in [12] was 25900 nM. Also, the viability at 48 h, 100 µM in [13] came out at 89.2%. Further, the LD50 – broadly, the dose at which mortality reaches 50% – at 336 h in series [17] was > 2000 mg/kg.

As for `N#Cc1ccc2nc(N3C(=O)CSC3c3c(F)cccc3Cl)sc2c1` (stereo unspecified), in series [18], the pIC50 (commonly the negative decadic logarithm of the IC50, by convention in mol/L) was 8.00.

In turn, `C=C1NC(=O)[C@]2(C)CSC(=N2)c2csc(n2)[C@]2(C)CSC(=N2)C([C@@H](C)CC)NC(=O)[C@@H](C)NC(=O)/C(=C\C(C)C)COC(=O)c2csc(n2)[C@H](C(C)C)N(C)C(=O)[C@H](COC)NC1=O` (stereo partly specified) gave a negative-log IC50 (pIC50) in the series with Human coronavirus 229E of 5.62.

`Cc1nc(NC(=O)C(C)(C)C)sc1-c1cnc(N(CC(C)(C)O)C2CCCCC2)s1` had a pIC50 with SARS-CoV-2 [19] of 5.80.

With `CCOC(=O)c1sc(NNC(=O)/C=C/c2ccccc2)nc1C`, the pEC50 in the series with SARS-CoV-2 [1] was 6.07. In addition, the pKi in [2] is 6.70. Besides, the outcome (in [3]; in the series on SARS-CoV-2 [20]) was inactive. The result in [4], in series [7] and in series [8] was Active. The Activity in series [5] was > 90%; in [6] it was > 90%; with SARS-CoV-2 [14], 56%; in series [15], “Non-toxic”; in series [16] it was “Non-toxic”. For the same molecule, the Tm stood at 49.9 °C in series [9] and 41.5 °C in series [10]. Moreover, in [11], the inhibition entry is “inactive”. For the same molecule, the IC50 at 48 h in [12] worked out at 180000 nM. Also, the viability at 48 h, 100 µM in [13] was determined as 87.5%. Also, in [17], the LD50 at 336 h was > 2000 mg/kg.

Take `O=c1c2ccccc2[se]n1-c1ccccc1` [EBSELEN]: in series [21], the result was Active. Moreover, the outcome in series [22] was inactive. For the same molecule, the Tm is 52.4 °C in [9] and 45.4 °C in series [10]. Further, the inhibition entry in [11] is “inactive”.

For the molecule `COc1cccc2c1C(=O)c1c(O)c3c(c(O)c1C2=O)C[C@@](O)(C(=O)CO)C[C@@H]3O[C@H]1C[C@H](N)[C@H](O)[C@H](C)O1` [DOXORUBICIN], in [12], the half-inhibitory concentration (IC50) at 48 h was 8230 nM. For the same molecule, the viability at 48 h, 10 µM in series [23] was 38.2%.

For `O=C(O)c1cc(F)c2nc(N3[C@@H]4CC[C@H]3C[C@@H](OCc3c(-c5ccccc5OC(F)(F)F)noc3C3CC3)C4)sc2c1` [TROPIFEXOR], the pIC50 in [24] is 5.29.
